Test results as given in publication PMC6272861, “In Vitro Inhibition of Human UDP-Glucuronosyl-Transferase (UGT) Isoforms by Astaxanthin, β-Cryptoxanthin, Canthaxanthin, Lutein, and Zeaxanthin: Prediction of in Vivo Dietary Supplement-Drug Interactions” (Molecules, 2016).
Where two headings read alike, the source gives them in different places.

Key:
UGT1A1 = target: T1, UGT1A1 (Homo sapiens, UniProt P22309); test: Inhibition of UGT1A1 (β-estradiol-3-glucuronidation) in human liver microsomes; conditions: for Residual UGT1A1 enzyme activity: highest tested concentration 50 μM
T1 sequence (P22309 26-533): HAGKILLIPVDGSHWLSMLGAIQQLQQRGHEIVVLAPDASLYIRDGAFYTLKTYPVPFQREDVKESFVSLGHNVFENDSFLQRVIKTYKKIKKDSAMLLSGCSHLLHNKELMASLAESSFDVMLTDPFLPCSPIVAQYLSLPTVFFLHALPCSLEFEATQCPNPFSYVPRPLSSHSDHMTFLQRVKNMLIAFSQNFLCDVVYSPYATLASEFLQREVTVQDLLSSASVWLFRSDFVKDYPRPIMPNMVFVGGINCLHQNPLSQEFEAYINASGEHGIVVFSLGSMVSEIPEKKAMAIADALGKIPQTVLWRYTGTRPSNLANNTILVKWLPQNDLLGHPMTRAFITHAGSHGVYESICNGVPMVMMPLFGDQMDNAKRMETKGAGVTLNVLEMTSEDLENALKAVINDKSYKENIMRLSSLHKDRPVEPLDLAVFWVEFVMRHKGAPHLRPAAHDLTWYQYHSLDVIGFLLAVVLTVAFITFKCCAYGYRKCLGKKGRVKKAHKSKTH
Method: (§1) The formation activities of β-estradiol-3-glucuronide, chenodeoxycholic acid 24-acyl-β-D-glucuronide, trifluoperazine-N-glucuronide, imipramine-N-β-D-glucuronide, serotonin-O-glucuronide, propofol-O-glucuronide, and zidovudine-5′-glucuronide were determined to probe the activities of UGT1A1, UGT1A3, UGT1A4, UGT1A6, UGT1A9 and UGT2B7, respectively, in human liver microsomes.
(§2) In brief, the 90-µL incubation mixture, including pooled human liver microsomes (final concentration 0.25 mg/mL), 100 mM Tris buffer, 25 µg/mL alamethicin, 5 mM MgCl2, the UGT-selective substrates, and five xanthophylls (0–50 μM), were pre-incubated for 30 min on ice to allow formation of alamethicin pores. Reac2345tions were initiated by the addition of 10 μL of UDPGA (5 mM) to a final reaction volume of 0.1 mL and incubated at 37 °C for 60 min (except 30 min for UGT1A9) in a shaking water bath. After incubation, each reaction was stopped by adding 50 μL of ice-cold acetonitrile containing chlorpropamide (300 ng/mL) or theophylline (30 μg/mL or 300 μg/mL) as an internal standard. The mixtures were then centrifuged (13,000 g for 15 min at 4 °C) and 5-µL aliquots of the supernatants were injected into an LC-MS/MS system. […] All incubations were performed in triplicate, and mean values were used for analysis.
(§3) Chromatographic separations were performed on an Agilent Poroshell 120 EC-C18 column (50 mm × 4.6-mm i.d.; 2.7-μm particle size; Agilent Technologies) to quantify β-estradiol-3-glucuronide (UGT1A1), chenodeoxycholic acid 24-acyl-β-D-glucuronide (UGT1A3), trifluoperazine-N-glucuronide (UGT1A4), propofol-O-glucuronide (UGT1A9), zidovudine-5′-glucuronide (UGT2B7), and 4-methylumbelliferyl glucuronide (UGT2B15); an Agilent Poroshell 120 EC-C18 column (100 × 4.6-mm i.d.; 2.7-mm particle size) was used for quantification of serotonin-O-glucuronide (UGT1A6). The isocratic mobile phase consisted of distilled water (A) and acetonitrile containing 0.1% formic acid (B) at a ratio (v/v) of 10:90 for chenodeoxycholic acid 24-acyl-β-D-glucuronide, 30:70 for trifluoperazine-N-glucuronide and zidovudine-5′-glucuronide, 50:50 for propofol-O-glucuronide and 4-methylumbelliferyl glucuronide, 65:35 for β-estradiol-3-glucuronide, and 90:10 for serotonin-O-glucuronide, at a flow rate of 0.5 mL/min. The total run time was 4.0 min per sample for each metabolite, with the exception of serotonin-O-glucuronide (6.0 min). Peak areas for all of the analytes were automatically integrated using Analyst software (version 1.5.2, Applied Biosystems, Foster City, CA, USA).
(§4) The IC50 values were calculated via nonlinear least-squares regression analysis from plots of the logarithms of inhibitor concentration vs. the residual percentages of activities after inhibition, using WinNonlin (ver. 4.0; Pharsight, Mountain View, CA, USA).

UGT1A6 = target: T2, UGT1A6 (Homo sapiens, UniProt P19224); test: Inhibition of UGT1A6 (serotonin-O-glucuronidation) in human liver microsomes; format: in vitro ADME; conditions: for IC50: 4000 μM serotonin, mean ± SD of triplicate, read-out: IC50 towards UGT1A6; for Residual UGT1A6 enzyme activity: highest tested concentration 50 μM
T2 construct: pooled human liver microsomes (final concentration 0.25 mg/mL); tissue Corning Life Sciences; host or cells: pooled human liver microsomes, 150 donors
T2 sequence (P19224 27-532): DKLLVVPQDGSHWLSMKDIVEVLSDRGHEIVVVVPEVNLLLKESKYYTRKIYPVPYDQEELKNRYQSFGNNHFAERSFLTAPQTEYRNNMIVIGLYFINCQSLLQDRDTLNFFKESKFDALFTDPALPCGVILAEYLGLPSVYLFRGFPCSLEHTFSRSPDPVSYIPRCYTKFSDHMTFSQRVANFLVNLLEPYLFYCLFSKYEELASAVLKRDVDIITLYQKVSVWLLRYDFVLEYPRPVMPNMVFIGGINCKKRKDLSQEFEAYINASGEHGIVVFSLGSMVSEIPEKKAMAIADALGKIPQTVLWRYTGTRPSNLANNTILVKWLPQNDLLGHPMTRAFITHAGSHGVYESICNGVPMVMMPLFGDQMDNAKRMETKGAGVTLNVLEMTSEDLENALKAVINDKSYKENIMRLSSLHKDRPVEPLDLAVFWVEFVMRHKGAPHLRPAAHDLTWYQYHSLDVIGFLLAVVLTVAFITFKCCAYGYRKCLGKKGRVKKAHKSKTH
Method: as §1, §2
The IC50 values were calculated via nonlinear least-squares regression analysis from plots of the logarithms of inhibitor concentration vs. the residual percentages of activities after inhibition, using WinNonlin (ver. 4.0; Pharsight, Mountain View, CA, USA). The apparent inhibitory constants (the Ki values) were estimated from fitted curves using the WinNonlin software. Inhibition data were fitted to different models of enzyme inhibition (competitive, non-competitive, uncompetitive, or mixed) using nonlinear least-squares regression analysis (WinNonlin software). The most appropriate inhibition model was selected based on goodness-of-fit criteria determined via visual inspection, by calculating correlations of determination (R^2 values), and using the corrected Akaike′s Information Criterion. For visual inspection, data were presented as Dixon plots.

UGT1A3 = target: T3, UGT1A3 (Homo sapiens, UniProt P35503); test: Inhibition of UGT1A3 (chenodeoxycholic acid 24-acyl-β-D-glucuronidation) in human liver microsomes; conditions: for Residual UGT1A3 enzyme activity: highest tested concentration 50 μM
T3 sequence (P35503 29-534): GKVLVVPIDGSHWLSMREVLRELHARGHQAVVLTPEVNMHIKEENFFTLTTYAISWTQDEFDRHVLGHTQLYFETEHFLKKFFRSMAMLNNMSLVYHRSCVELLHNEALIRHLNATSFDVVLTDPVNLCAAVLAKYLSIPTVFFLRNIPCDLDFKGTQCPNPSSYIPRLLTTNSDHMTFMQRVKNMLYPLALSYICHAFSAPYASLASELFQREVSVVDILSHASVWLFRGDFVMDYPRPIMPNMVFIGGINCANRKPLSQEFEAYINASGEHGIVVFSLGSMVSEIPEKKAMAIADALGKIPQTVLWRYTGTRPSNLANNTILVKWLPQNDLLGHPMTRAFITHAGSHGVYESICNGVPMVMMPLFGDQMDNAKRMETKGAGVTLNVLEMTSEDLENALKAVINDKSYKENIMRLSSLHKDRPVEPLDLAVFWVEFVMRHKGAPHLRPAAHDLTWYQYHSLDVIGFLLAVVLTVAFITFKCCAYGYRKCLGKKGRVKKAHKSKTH
Method: as §1, §2, §3, §4

UGT1A4 = target: T4, UGT1A4 (Homo sapiens, UniProt P22310); test: Inhibition of UGT1A4 (trifluoperazine-N-glucuronidation) in human liver microsomes; format: in vitro ADME; conditions: for IC50: 4 μM trifluoperazine, mean ± SD of triplicate, read-out: IC50 towards UGT1A4; for Residual UGT1A4 enzyme activity: highest tested concentration 50 μM
T4 construct: pooled human liver microsomes (final concentration 0.25 mg/mL); tissue Corning Life Sciences; host or cells: pooled human liver microsomes, 150 donors
T4 sequence (P22310 29-534): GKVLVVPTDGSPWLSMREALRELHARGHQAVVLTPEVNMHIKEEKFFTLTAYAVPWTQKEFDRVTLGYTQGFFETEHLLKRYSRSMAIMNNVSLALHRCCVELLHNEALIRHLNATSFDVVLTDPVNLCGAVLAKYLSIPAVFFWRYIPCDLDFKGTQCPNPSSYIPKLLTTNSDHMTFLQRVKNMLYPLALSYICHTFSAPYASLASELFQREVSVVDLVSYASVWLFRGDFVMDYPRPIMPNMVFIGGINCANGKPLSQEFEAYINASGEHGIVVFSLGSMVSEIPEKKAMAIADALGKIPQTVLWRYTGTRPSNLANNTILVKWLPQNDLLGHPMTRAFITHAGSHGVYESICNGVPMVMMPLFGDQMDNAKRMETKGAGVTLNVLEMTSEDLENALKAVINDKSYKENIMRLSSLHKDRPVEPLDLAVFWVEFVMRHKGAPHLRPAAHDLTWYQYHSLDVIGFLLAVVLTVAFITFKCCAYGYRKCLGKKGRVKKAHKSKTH
Method: as §1, §2, §3, §4

[1] = read-out: IC50 towards UGT1A1, human liver microsomes, 10 μM β-estradiol, mean ± SD of triplicate
[2] = read-out: IC50 towards UGT1A3, human liver microsomes, 15 μM chenodeoxycholic acid, mean ± SD of triplicate

| SMILES | IC50 (UGT1A1) [µM] | Residual UGT1A1 enzyme activity (UGT1A1; human liver microsomes) | IC50 (UGT1A6) [µM] | Residual UGT1A6 enzyme activity (UGT1A6) | IC50 (UGT1A3) [µM] | Residual UGT1A3 enzyme activity (UGT1A3; human liver microsomes) | IC50 (UGT1A4) [µM] | Residual UGT1A4 enzyme activity (UGT1A4) | IC50 (UGT1A1; [1]) [µM] | IC50 (UGT1A3; [2]) [µM] |
| --- | --- | --- | --- | --- | --- | --- | --- | --- | --- | --- |
| CC1=C(/C=C/C(C)=C/C=C/C(C)=C/C=C/C=C(C)/C=C/C=C(C)/C=C/C2=C(C)C[C@@H](O)CC2(C)C)C(C)(C)C[C@H](O)C1 [ZE, zeaxanthin] | > 50 | 61.2% | > 50 | greater than 80% | > 50 | 64.2% | > 50 | greater than 80% | – | – |
| CC1=C[C@H](O)CC(C)(C)[C@H]1/C=C/C(C)=C/C=C/C(C)=C/C=C/C=C(C)/C=C/C=C(C)/C=C/C1=C(C)C[C@@H](O)CC1(C)C [LU, lutein] | 45.5 ± 4.01 | – | > 50 | – | > 50 | – | 28.7 ± 3.79 | – | – | – |
| CC1=C(/C=C/C(C)=C/C=C/C(C)=C/C=C/C=C(C)/C=C/C=C(C)/C=C/C2=C(C)C[C@@H](O)CC2(C)C)C(C)(C)CCC1 [βC, β-cryptoxanthin] | – | – | > 50 | – | – | – | 34.9 ± 5.98 | – | 18.8 ± 2.07 | 28.3 ± 4.4 |
| CC1=C(/C=C/C(C)=C/C=C/C(C)=C/C=C/C=C(C)/C=C/C=C(C)/C=C/C2=C(C)C(=O)CCC2(C)C)C(C)(C)CCC1=O [CA, canthaxanthin] | – | – | > 50 | – | – | – | > 50 | – | 38.5 ± 4.65 | 41.2 ± 3.14 |
| CC1=C(/C=C/C(C)=C/C=C/C(C)=C/C=C/C=C(C)/C=C/C=C(C)/C=C/C2=C(C)C(=O)[C@@H](O)CC2(C)C)C(C)(C)C[C@H](O)C1=O [AS, astaxanthin] | > 50 | greater than 80% | > 50 | greater than 80% | > 50 | greater than 80% | > 50 | greater than 80% | – | – |
